# From article PMC2774616, “Cellular Assays for High-Throughput Screening for Modulators of Trk Receptor Tyrosine Kinases” (Current Chemical Genomics, 2008)
# Several values for one entry are separate records, joined by “and”; a condition that tells them apart may be missing. Equal entries are not always repeated. Where two headings read alike, the source gives them in different places.
# How the values were obtained:
# [1] = tested on: thapsigargin-induced NFAT-bla reporter activity; experiment: Effect of RNAi oligos on thapsigargin-induced NFAT-bla reporter activity in TrkA-, TrkB- and TrkC-NFAT-bla CHO-K1 cells; format: cell-based; conditions: all three cell lines, 50 nM RNAi oligo, Thapsigargin 30 nM 5 h
# Protocol: Cells were plated in 96-well assay plates (Corning, catalog number 3603) at 6,000 cells/well in 100 µL growth medium (DMEM containing 10% dialyzed FBS, 0.1 mM NEAA and 25 mM HEPES), and incubated in 37°C, 5% CO2 incubator overnight. Next morning, Stealth™ RNAi (Invitrogen, catalog number 10620318) and Lipofectamine^TM RNAiMAX (Invitrogen, catalog number 13778) complexes were prepared according to the manufacturer’s protocol and added to the wells (50 nM RNAi oligos and 1µL RNAiMAX/well). RNAi oligo targeting for beta-lactamase was used as the positive control and a random-sequenced oligo with 48% GC content (Med GC) as the negative control. A set of 2 oligos for each Trk was used:
# Cells were incubated with RNAi oligos at 37°C for 32 hours, followed by a medium change. Cells were incubated in Assay Medium at 37 °C for 16 hours and then stimulated with respective ligands (NGF, 0.77 nM; BDNF, 1 nM; NT-3, 0.72 nM and Thapsigargin, 30 nM) for 5 hours before beta-lactamase assay was performed as described above.
# [2] = tested on: NFAT-bla reporter, Trk-NFAT-bla CHO-K1 cells; experiment: Thapsigargin stimulation of Trk-NFAT-bla CHO-K1 cell lines; format: cell-based; conditions: used for stimulation in inhibitor assay
# Protocol: Cells in a sub-confluency state (or cryopreserved cells) were resuspended in Assay Medium (DMEM with GlutaMAX™ (Invitrogen, catalog number 10569) supplemented with 0.1% dialyzed FBS, 0.1 mM NEAA, 25 mM HEPES, 100 U/mL Penicillin and 100 µg/mL Streptomycin) and plated in a 384-well assay plate (Corning, Lowell, MA, catalog number 3712) at 10,000 cells (32 μL) per well. 32 μL of Assay Medium without cells were plated in Cell-free Control wells on the same plate. 4 µL 1% DMSO was added to each well to reach final DMSO concentration of 0.1% to mimic the screening situation where compounds dissolved in DMSO are added to test wells. […] Fluorescence intensity at excitation 406 nm and emission 460 nm and 530 nm were obtained using Tecan Safire^2 fluorescence plate reader (Tecan, Durham, NC) (Table 1). After subtracting the average fluorescence intensity from the Cell-free Control wells, the 460nm/530nm emission ratio was calculated. Response Ratio is a measurement of the assay window and is calculated as the 460nm/530nm Emission Ratio of the stimulated wells divided by the 460nm/530nm Emission Ratio of the unstimulated wells. Response Ratios were plotted against test ligand concentrations in log scale and then analyzed using Prism software (GraphPad Software, Inc. San Diego, CA). […]
# [3] = tested on: Thapsigargin-induced NFAT reporter activity, TrkB-NFAT-bla CHO-K1 cells; experiment: Inhibition of Thapsigargin-induced NFAT reporter activity in TrkB-NFAT-bla CHO-K1 cells; format: cell-based; conditions: for IC50: TrkB cells, Thapsigargin 8 nM, 5 h, * values may not be accurate, curves did not reach saturation, read-out: IC50, TrkB, Thaps
# Protocol: (§1) Cells in a sub-confluency state (or cryopreserved cells) were resuspended in Assay Medium (DMEM with GlutaMAX™ (Invitrogen, catalog number 10569) supplemented with 0.1% dialyzed FBS, 0.1 mM NEAA, 25 mM HEPES, 100 U/mL Penicillin and 100 µg/mL Streptomycin) and plated in a 384-well assay plate (Corning, Lowell, MA, catalog number 3712) at 10,000 cells (32 μL) per well. 32 μL of Assay Medium without cells were plated in Cell-free Control wells on the same plate. 4 µL 1% DMSO was added to each well to reach final DMSO concentration of 0.1% to mimic the screening situation where compounds dissolved in DMSO are added to test wells. Cells were then stimulated with 4 µL/well 10 x ligands (NGF, BDNF, NT-4 (Invitrogen, catalog number PHC7024), NT-3 or Thapsigargin (Sigma, St. Louis, MO)) over the indicated concentration range (1 pM ~ 50000 pM) for 5 hours before adding 8 µL/well 6X LiveBLAzer™-FRET B/G Substrate mixture (Invitrogen, catalog number K1096) for 2 hours. Fluorescence intensity at excitation 406 nm and emission 460 nm and 530 nm were obtained using Tecan Safire^2 fluorescence plate reader (Tecan, Durham, NC) (Table 1). After subtracting the average fluorescence intensity from the Cell-free Control wells, the 460nm/530nm emission ratio was calculated. Response Ratio is a measurement of the assay window and is calculated as the 460nm/530nm Emission Ratio of the stimulated wells divided by the 460nm/530nm Emission Ratio of the unstimulated wells. Response Ratios were plotted against test ligand concentrations in log scale and then analyzed using Prism software (GraphPad Software, Inc. San Diego, CA). Sigmoidal dose-response equation with varying slope was used to fit the data and generate EC50 values. Z’-factor values were calculated as: Z’-factor = 1 - [(3 x stdevunstim + 3 x stdevmaxstim) / (avgmaxstim – avgunstim)].
# (§2) Cells were then stimulated with 4 µL of neurotrophins at 10 x EC80 concentrations (EC80 concentrations are: NGF, 0.77 nM; BDNF, 1 nM; NT-3, 0.72 nM; Thapsigargin, 8 nM) for 5 hours before beta-lactamase assay was performed as described above.
# [4] = biological target: T1, human TrkB (Homo sapiens, UniProt Q16620); experiment: Inhibition of BDNF-induced beta-lactamase activity in TrkB-NFAT-bla CHO-K1 cells; format: cell-based
# T1 construct: Full length human TRKA, TRKB and TRKC cDNAs were synthesized by Blue Heron Biotechnology; expressed in transfected cells
# [5] = biological target: T2, human TrkA (Homo sapiens, UniProt P04629); experiment: Inhibition of NGF-induced beta-lactamase activity in TrkA-NFAT-bla CHO-K1 cells; format: cell-based
# T2 construct: Full length human TRKA, TRKB and TRKC cDNAs were synthesized by Blue Heron Biotechnology; expressed in transfected cells
# [6] = biological target: T3, human TrkC (Homo sapiens, UniProt Q16288); experiment: Inhibition of NT-3-induced beta-lactamase activity in TrkC-NFAT-bla CHO-K1 cells; format: cell-based
# T3 construct: Full length human TRKA, TRKB and TRKC cDNAs were synthesized by Blue Heron Biotechnology; expressed in transfected cells
# Protocol: as §1
# [7] = tested on: Thapsigargin-induced NFAT reporter activity, TrkC-NFAT-bla CHO-K1 cells; experiment: Inhibition of Thapsigargin-induced NFAT reporter activity in TrkC-NFAT-bla CHO-K1 cells; format: cell-based; conditions: for IC50: TrkC cells, Thapsigargin 8 nM, 5 h, * values may not be accurate, curves did not reach saturation, read-out: IC50, TrkC, Thaps
# Protocol: as §1, §2
# [8] = tested on: Thapsigargin-induced NFAT reporter activity, TrkA-NFAT-bla CHO-K1 cells; experiment: Inhibition of Thapsigargin-induced NFAT reporter activity in TrkA-NFAT-bla CHO-K1 cells; format: cell-based; conditions: for IC50: TrkA cells, Thapsigargin 8 nM, 5 h, * values may not be accurate, curves did not reach saturation, read-out: IC50, TrkA, Thaps
# Protocol: as §1, §2
# [9] = tested on: TrkA; design: method as in PMID 7683492; conditions: cited from earlier work
# [10] = biological target: T1, human TrkB; experiment: Neurotrophin dose response, beta-lactamase reporter assay in TrkB-NFAT-bla CHO-K1 cells; format: cell-based
# Text: (§3) NFAT beta-lactamase reporter line NFAT-bla CHO-K1 cells (Invitrogen, Carlsbad, CA, catalog number K1078) were transfected using Lipofectamine™ LTX transfection reagent (Invitrogen, Carlsbad, CA) with pcDNA6-TRKA, pcDNA6-TRKB and pcDNA6-TRKC and selected for blasticidin-resistance. Blasticidin-resistant TrkA transfected cells were stimulated with NGF (Invitrogen, catalog number 13257-019), TrkB transfected cells with BDNF (Invitrogen, catalog number PHC7074) and TrkC transfected cells with NT-3 (Invitrogen, catalog number PHC7034) for 5 hours before neurotrophin stimulated beta-lactamase expressing cells were collected by FACS as single cells onto 96-well plates. The survived clones that responded to the respective ligand were selected and expanded. The clone with the best response to each ligand was further tested in a 384-well format for the dose response of neurotrophins and inhibitors and in a 96-well format for RNAi knock-down.
# as §1
# [11] = biological target: T3, human TrkC; experiment: Neurotrophin dose response, beta-lactamase reporter assay in TrkC-NFAT-bla CHO-K1 cells; format: cell-based
# Text: as §3, §1
# [12] = biological target: T2, human TrkA; experiment: Neurotrophin dose response, beta-lactamase reporter assay in TrkA-NFAT-bla CHO-K1 cells; format: cell-based
# Text: as §3, §1
# [13] = 30 min pretreatment, BDNF at EC80 1 nM, 5 h, read-out: IC50, TrkB, BDNF
# [14] = 30 min pretreatment, NT-3 at EC80 0.72 nM, 5 h, read-out: IC50, TrkC, NT-3
# [15] = 460nm/530nm ratio stimulated vs unstimulated
# [16] = 5 h stimulation, 0.1% DMSO, * values may not be accurate, curves did not reach saturation
# [17] = at the highest concentration tested
# T1 sequence (Q16620 32-838 isoform Q16620-4 limits assumed): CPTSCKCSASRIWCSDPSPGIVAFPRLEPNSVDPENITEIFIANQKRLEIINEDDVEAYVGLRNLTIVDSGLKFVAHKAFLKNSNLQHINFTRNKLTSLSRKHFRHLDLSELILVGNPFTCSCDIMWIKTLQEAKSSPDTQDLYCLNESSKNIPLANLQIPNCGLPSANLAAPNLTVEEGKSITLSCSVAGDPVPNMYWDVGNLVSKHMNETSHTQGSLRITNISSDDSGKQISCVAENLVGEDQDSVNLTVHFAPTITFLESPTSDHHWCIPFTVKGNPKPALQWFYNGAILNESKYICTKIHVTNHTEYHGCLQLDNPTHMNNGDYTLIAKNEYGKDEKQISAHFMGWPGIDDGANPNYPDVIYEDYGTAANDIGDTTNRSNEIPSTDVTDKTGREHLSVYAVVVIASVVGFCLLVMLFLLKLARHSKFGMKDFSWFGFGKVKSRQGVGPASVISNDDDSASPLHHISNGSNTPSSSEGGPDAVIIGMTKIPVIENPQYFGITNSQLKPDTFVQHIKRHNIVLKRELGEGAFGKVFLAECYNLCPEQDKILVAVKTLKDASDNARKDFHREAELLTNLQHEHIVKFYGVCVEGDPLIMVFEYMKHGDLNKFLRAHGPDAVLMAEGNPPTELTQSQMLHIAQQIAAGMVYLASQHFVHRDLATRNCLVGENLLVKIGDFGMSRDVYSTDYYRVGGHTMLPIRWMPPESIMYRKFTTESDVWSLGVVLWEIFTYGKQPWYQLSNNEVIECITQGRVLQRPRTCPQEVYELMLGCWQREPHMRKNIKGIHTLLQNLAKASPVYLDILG
# T3 sequence (Q16288 32-825 isoform Q16288-3 limits assumed): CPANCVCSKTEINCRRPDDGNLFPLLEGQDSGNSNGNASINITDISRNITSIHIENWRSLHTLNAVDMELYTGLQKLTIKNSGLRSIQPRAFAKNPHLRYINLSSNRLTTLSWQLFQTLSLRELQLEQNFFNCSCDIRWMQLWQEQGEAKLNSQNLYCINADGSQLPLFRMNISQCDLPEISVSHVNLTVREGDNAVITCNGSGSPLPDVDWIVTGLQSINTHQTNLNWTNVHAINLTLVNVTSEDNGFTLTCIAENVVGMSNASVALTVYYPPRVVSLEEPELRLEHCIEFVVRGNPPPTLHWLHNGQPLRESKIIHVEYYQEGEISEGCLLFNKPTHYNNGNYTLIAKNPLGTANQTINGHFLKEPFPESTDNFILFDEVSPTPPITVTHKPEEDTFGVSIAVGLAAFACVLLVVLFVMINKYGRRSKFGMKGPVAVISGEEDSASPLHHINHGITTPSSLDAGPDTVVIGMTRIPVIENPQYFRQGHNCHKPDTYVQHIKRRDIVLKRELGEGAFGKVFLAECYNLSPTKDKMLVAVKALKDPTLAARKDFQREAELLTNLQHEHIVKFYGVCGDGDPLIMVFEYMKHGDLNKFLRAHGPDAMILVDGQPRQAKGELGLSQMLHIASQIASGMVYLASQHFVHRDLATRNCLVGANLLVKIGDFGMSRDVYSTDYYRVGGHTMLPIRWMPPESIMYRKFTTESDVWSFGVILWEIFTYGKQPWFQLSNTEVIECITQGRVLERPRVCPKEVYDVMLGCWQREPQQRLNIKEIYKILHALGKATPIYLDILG
# T2 sequence (P04629 33-796): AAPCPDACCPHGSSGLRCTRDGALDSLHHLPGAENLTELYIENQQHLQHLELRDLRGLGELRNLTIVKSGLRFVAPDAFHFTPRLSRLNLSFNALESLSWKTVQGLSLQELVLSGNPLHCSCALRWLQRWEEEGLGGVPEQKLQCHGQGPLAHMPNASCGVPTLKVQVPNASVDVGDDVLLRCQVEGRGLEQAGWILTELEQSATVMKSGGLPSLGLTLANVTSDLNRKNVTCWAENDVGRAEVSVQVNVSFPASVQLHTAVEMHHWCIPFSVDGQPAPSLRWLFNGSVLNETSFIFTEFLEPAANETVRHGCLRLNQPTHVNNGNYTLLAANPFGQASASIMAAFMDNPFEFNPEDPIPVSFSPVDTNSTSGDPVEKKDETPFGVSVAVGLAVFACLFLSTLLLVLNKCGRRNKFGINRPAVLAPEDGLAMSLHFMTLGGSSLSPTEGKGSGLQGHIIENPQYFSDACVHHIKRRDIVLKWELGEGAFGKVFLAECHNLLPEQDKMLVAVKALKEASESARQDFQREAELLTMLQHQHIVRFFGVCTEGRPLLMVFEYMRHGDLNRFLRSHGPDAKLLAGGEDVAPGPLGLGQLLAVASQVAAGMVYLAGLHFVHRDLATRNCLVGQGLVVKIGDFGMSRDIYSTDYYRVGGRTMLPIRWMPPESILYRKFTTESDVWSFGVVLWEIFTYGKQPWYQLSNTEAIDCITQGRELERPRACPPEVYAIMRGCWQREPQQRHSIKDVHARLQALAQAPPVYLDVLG
molecule,measurement,setting,value
"TRKB2: Stealth RNAi oligo for TrkB, ACACCACGAACAGAAGUAAUGAAAU (Stealth RNAi oligo, modification pattern not given here)",inhibitory effect on thapsigargin-induced NFAT-bla reporter activity,[1],about 50%
C/C=C(/C)C(=O)O[C@H]1C(C)=C2[C@H]([C@@H]1OC(=O)CCCCCCC)[C@@](C)(OC(C)=O)C[C@H](OC(=O)CCC)[C@@]1(O)[C@H]2OC(=O)[C@@]1(C)O [Thapsigargin],"EC80 concentration, Thapsigargin",[2],8 nM
CC(C)(C)c1cc(/C=C(\C#N)C(N)=S)cc(C(C)(C)C)c1O [AG879],IC50,[3],51 nM
same,IC50,[4]; [13],1010 nM
same,IC50,"[4]; BDNF-induced, read-out: IC50, TrkB-mediated NFAT-bla reporter activity",~1000 nM
same,IC50,"[5]; 30 min pretreatment, NGF at EC80 0.77 nM, 5 h, read-out: IC50, TrkA, NGF",1330 nM
same,IC50,"[5]; NGF-induced, read-out: IC50, TrkA-mediated NFAT-bla reporter activity",~1000 nM
same,IC50,[6]; [14],1310 nM
same,IC50,"[6]; NT-3-induced, read-out: IC50, TrkC-mediated NFAT-bla reporter activity",~1000 nM
same,IC50,[7],231 nM
same,IC50,[8],112 nM
same,concentrations inhibiting NGF induced TrkA autophosphorylation and PLC-γ phosphorylation,[9],micro-molar concentrations
"NT-3: neurotrophin 3, preferred ligand of TrkC","maximum response ratio, TrkB-NFAT-bla CHO-K1",[10]; [15],13
same,EC50,"[10]; 5 h stimulation, 0.1% DMSO",2.5 nM
same,"maximum response ratio, TrkC-NFAT-bla CHO-K1",[11]; [15],8.5
same,EC50,[11]; [16],0.093 nM and 0.09 nM
same,"EC80 concentration, TrkC cells",[11]; used for stimulation in inhibitor assay,0.72 nM
same,"maximum response ratio / response over baseline, TrkA-NFAT-bla CHO-K1",[12]; [15],3 fold
same,EC50,[12]; [16],~16 nM and 16 nM
COC(=O)[C@@]1(O)C[C@H]2O[C@]1(C)n1c3ccccc3c3c4c(c5c6ccccc6n2c5c31)C(=O)NC4 [K252a],IC50,[3],> 1000 nM
same,"effect on Thapsigargin induced reporter activity, TrkB cells (in words)",[3]; [17],partial inhibitory effect
same,"IC50 in words, BDNF-induced beta-lactamase activity in TrkB cells",[4],low nano-molar
same,IC50,[4]; [13],11 nM
same,"IC50 in words, NT-3-induced beta-lactamase activity in TrkC cells",[6],low nano-molar
same,IC50,[6]; [14],30 nM
same,IC50,[7],500 nM
same,"effect on Thapsigargin induced reporter activity, TrkC cells (in words)",[7]; [17],partial inhibitory effect
same,IC50,[8],570 nM
same,"effect on Thapsigargin induced reporter activity, TrkA cells (in words)",[8]; [17],partial inhibitory effect
